From patent publication EP4772507A1, “AZAINDOLE COMPOUND AND MEDICAL DRUG” (Nippon Shinyaku Co., Ltd., priority 2023, dated 2025) come the findings set out here.

Structures are written as SMILES.

Assay [1] concerns the target T1, C-terminal catalytic domain of MALT1 (amino acid residues 329-824) (Homo sapiens, UniProt Q9UDY8).
T1 construct: C-terminal catalytic domain of MALT1 (amino acid residues 329-824)
T1 sequence (Q9UDY8 329-824): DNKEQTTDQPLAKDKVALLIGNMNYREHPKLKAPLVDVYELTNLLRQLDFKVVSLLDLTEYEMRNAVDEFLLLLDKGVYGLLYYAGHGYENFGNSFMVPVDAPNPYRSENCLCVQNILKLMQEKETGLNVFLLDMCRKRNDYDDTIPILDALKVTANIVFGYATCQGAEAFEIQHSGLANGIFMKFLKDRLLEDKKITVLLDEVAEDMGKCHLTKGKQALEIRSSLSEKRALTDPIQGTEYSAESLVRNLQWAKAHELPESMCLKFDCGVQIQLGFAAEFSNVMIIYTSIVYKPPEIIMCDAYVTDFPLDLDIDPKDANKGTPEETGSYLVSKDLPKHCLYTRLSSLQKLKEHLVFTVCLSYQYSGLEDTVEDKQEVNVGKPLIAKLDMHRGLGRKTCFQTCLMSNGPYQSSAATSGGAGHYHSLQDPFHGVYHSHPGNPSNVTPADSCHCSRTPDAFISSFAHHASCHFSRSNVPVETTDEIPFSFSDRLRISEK
Kind of assay: MALT1 protease inhibitory activity (enzyme activity inhibition assay, fluorogenic substrate). It is filed as biochemical. To be noted: substrate Ac-Leu-Arg-Ser-Arg-AMC 50 µM; 30°C for 2 hours; fluorescence. As for the experimental part:
To evaluate the enzyme inhibitory activity of a test substance against MALT1, an enzyme activity inhibition assay was conducted using the C-terminal catalytic domain of MALT1 (amino acid residues 329-824).
A test substance was prepared at a concentration of 10 mM in dimethyl sulfoxide (DMSO) and further diluted with DMSO to obtain final concentrations of 1000, 100, 10, 1, and 0.1 µM. The solutions were further diluted 25-fold with an assay buffer to prepare final test substance solutions. The composition of the assay buffer was 200 mM Tris/HCl HEPES (pH 7.5), 0.8 M Na citrate, 100 µM DTT, and 0.05% CHAPS.
The test substance solution was added to a 384-well black plate (#6007270, PerkinElmer) in an amount of 5 µL per well (n = 2; final concentrations of 10000, 1000, 100, 10, 1, and 0.1 nM), followed by the addition of 10 µL of MALT1 enzyme and finally 5 µL of a substrate solution (Ac-Leu-Arg-Ser-Arg-AMC, Peptide Institute, Inc.; final concentration in the reaction mixture: 50 µM), and after stirring, the mixture was allowed to react at 30°C for 2 hours. Fluorescence (excitation: 380 nm, emission: 460 nm) was detected using a microplate reader (EnVision, PerkinElmer).
Using the measurement data, non-linear regression analysis based on a 2-parameter logistic model was performed with Spotfire (PerkinElmer) to calculate IC50.

The subject of another assay is SU-DHL-4 cell lines. In words: Proliferation inhibition test, GCB-DLBCL cell line SU-DHL-4 (negative control line). To be noted: Homo sapiens; SU-DHL-4 (GCB-DLBCL, NF-κB pathway-independent, negative control); 96 hours; Cell Counting Kit-8; read-out: Proliferation inhibitory activity against SU-DHL-4 IC50. Type of assay: cell-based. As for the experimental part:
(§1) In ABC-DLBCL cell lines, the NF-κB pathway is constitutively activated due to mutations in the B-cell receptor pathway. To evaluate the proliferation inhibitory activity associated with the MALT1 inhibitory activity of the test substance, a proliferation inhibition test was conducted using ABC-DLBCL cell lines.
(§2) The test substance was prepared at a concentration of 10 mM in dimethyl sulfoxide (DMSO) and further diluted with DMSO to each of concentrations of 3,000, 1,000, 300, 100, 30, and 10 µM. The solutions were further diluted 100-fold with IMDM medium containing 10% FBS to prepare test substance solutions.
(§3) OCI-Ly3 cell lines (ABC-DLBCL, NF-κB pathway-dependent) were cultured in IMDM containing 10% FBS, and SU-DHL-4 cell lines (GCB-DLBCL, NF-κB pathway-independent, used as a negative control) were cultured in RPMI-1640 containing 10% FBS. Into a 96-well plate, 2,000 cells of the OCI-Ly3 cell line and 4,000 cells of the SU-DHL-4 cell line were seeded in 100 µL per well, and 11 µL of the adjusted test substance solution was added thereto (final concentrations: 10,000, 3,000, 1,000, 300, 100, 30, and 10 nM). After 96 hours of incubation at 37°C in a 5% CO2 incubator, 10 µL of Cell Counting Kit-8 (Dojindo Laboratories) was added to each well. After 4 hours of incubation at 37°C, absorbance at 450 nm was detected using a microplate reader (EnVision, PerkinElmer).
(§4) Using the measurement data, non-linear regression analysis based on a 2-parameter logistic model was performed with Spotfire (PerkinElmer) to estimate IC50 values.
For orientation: Formazan colour is commonly taken as a measure of viable cells.

In assay [2] the test system is HEK293/API2-MALT1/NF-κB reporter cells. Kind of assay: Inhibition of reporter activity in HEK293/API2-MALT1/NF-κB reporter cells. Type of assay: cell-based. Conditions: Homo sapiens, 24 hours with test substance, One-glo luminescence. How it is done:
The API2-MALT1 fusion protein, expressed in MALT lymphoma, is known to constitutively activate the NF-κB pathway. To evaluate the inhibitory effect of the test substance on the NF-κB pathway in cells, a reporter activity inhibition test was conducted using HEK293/API2-MALT1/NF-κB reporter cells.
The test substance was prepared at a concentration of 10 mM in dimethyl sulfoxide (DMSO) and further diluted with DMSO to each of concentrations of 1000, 300, 100, and 10 µM. The solutions were further diluted 100-fold with DMEM medium containing 10% FBS to prepare test substance solutions.
HEK293/API2-MALT1/NF-κB reporter cells and 293T/CMV reporter cells (used as a negative control) were cultured in DMEM medium containing 10% FBS. Into a 384-well plate (#781080, Greiner), 6,000 cells were seeded in 30 µL per well, and after culturing for 24 hours, 3.3 µL of the adjusted test substance solution was added thereto (final concentrations: 10,000, 1,000, 100, and 10 nM). After culturing for 24 hours at 37°C in a 5% CO2 incubator, 33 µL of One-glo (Promega) was added to each well. After a 5-minute incubation at room temperature, luminescence was detected using a microplate reader (EnVision, PerkinElmer).
Using the measurement data, non-linear regression analysis was performed with the SAS system (SAS Institute Inc.) to estimate IC50.

The test system of the next assay is OCI-Ly3 cell lines. In words: Proliferation inhibition test, ABC-DLBCL cell line OCI-Ly3. It is filed as cell-based. To be noted: Homo sapiens; OCI-Ly3 (ABC-DLBCL, NF-κB pathway-dependent); 96 hours; Cell Counting Kit-8; read-out: Proliferation inhibitory activity against OCI-Ly3 IC50. As for the experimental part:
as §1, §2, §3, §4

`C[C@@H]1CC(C(=O)c2cn([C@@H]3CCOC3)c3nc(-n4nccn4)c(Cl)cc23)C[C@@H](C)N1c1ncc(F)cc1I` (stereo partly drawn) [Example 22, {5-chloro-1-[(3R)-oxolan-3-yl]-6-(2H-1,2,3-triazol-2-yl)-1H-pyrrolo[2,3-b]pyridin-3-yl}[(2R,6R)-1-(5-fluoro-3-iodopyridin-2-yl)-2,6-dimethylpiperidin-4-yl]methanone]: the IC50 in assay [1] is 70 nM; in the assay on SU-DHL-4 cell lines it was 8900 nM; in assay [2] it was 280 nM; in the assay on OCI-Ly3 cell lines, 530 nM.

Take `Cn1cc(C(=O)c2cnn(-c3cccn4nccc34)c2C(F)(F)F)c2cc(Cl)c(-n3nccn3)nc21` [Example 27, [5-chloro-1-methyl-6-(2H-1,2,3-triazol-2-yl)-1H-pyrrolo[2,3-b]pyridin-3-yl][1-(pyrazolo[1,5-a]pyridin-4-yl)-5-(trifluoromethyl)-1H-pyrazol-4-yl]methanone]: the IC50 turned out to be 5.8 nM in assay [1], 7200 nM with SU-DHL-4 cell lines, 280 nM in assay [2] and 380 nM in the assay on OCI-Ly3 cell lines.

As for `CCn1cc(C(=O)c2cnn(-c3cncc4c(F)cccc34)c2C(F)(F)F)c2cc(Cl)c(-c3ncccn3)nc21` [Example 13, [5-chloro-1-ethyl-6-(pyrimidin-2-yl)-1H-pyrrolo[2,3-b]pyridin-3-yl][1-(8-fluoroisoquinolin-4-yl)-5-(trifluoromethyl)-1H-pyrazol-4-yl]methanone], the IC50 in assay [1] was 15 nM; in the assay on SU-DHL-4 cell lines it was 2000 nM; in assay [2], 62 nM; in the assay on OCI-Ly3 cell lines, 110 nM.

Consider `Cn1cc(C(=O)c2cnn(-c3cccn4c(=O)cccc34)c2C(F)(F)F)c2cc(Cl)c(-n3nccn3)nc21` [Example 31, 9-{4-[5-chloro-1-methyl-6-(2H-1,2,3-triazol-2-yl)-1H-pyrrolo[2,3-b]pyridine-3-carbonyl]-5-(trifluoromethyl)-1H-pyrazol-1-yl}-4H-quinolizin-4-one], for which the IC50 in assay [1] was 25 nM; in the assay on SU-DHL-4 cell lines it was > 10000 nM; in assay [2], 73 nM; with OCI-Ly3 cell lines it was 150 nM.

For the molecule `C[C@@H]1C[C@H](C(=O)c2cn(C)c3nc(-n4nccn4)c(Cl)cc23)CCN1c1ccc(F)cc1N` (racemic) [Example 34, [(2RS,4RS)-1-(2-amino-4-fluorophenyl)-2-methylpiperidin-4-yl][5-chloro-1-methyl-6-(2H-1,2,3-triazol-2-yl)-1H-pyrrolo[2,3-b]pyridin-3-yl]methanone], the IC50 in assay [1] is 13 nM; with SU-DHL-4 cell lines it was > 10000 nM; in assay [2], 200 nM; with OCI-Ly3 cell lines, 520 nM.

As to `COc1nc2c(cc1Cl)c(C(=O)c1cnn(-c3cncc4c(F)cccc34)c1C(F)(F)F)cn2C` [Example 32, (5-chloro-6-methoxy-1-methyl-1H-pyrrolo[2,3-b]pyridin-3-yl)[1-(8-fluoroisoquinolin-4-yl)-5-(trifluoromethyl)-1H-pyrazol-4-yl]methanone], the IC50 in assay [1] is 54 nM; in the assay with SU-DHL-4 cell lines, > 10000 nM; in assay [2], 280 nM; in the assay with OCI-Ly3 cell lines it was 140 nM.

Regarding `C[C@@H]1CC(C(=O)c2cn(CCCO)c3nc(-n4nccn4)c(Cl)cc23)C[C@@H](C)N1c1ncc(F)cc1I` (stereo partly drawn) [Example 15, [5-chloro-1-(3-hydroxypropyl)-6-(2H-1,2,3-triazol-2-yl)-1H-pyrrolo[2,3-b]pyridin-3-yl][(2R,6R)-1-(5-fluoro-3-iodopyridin-2-yl)-2,6-dimethylpiperidin-4-yl]methanone], the IC50 in the assay with SU-DHL-4 cell lines was determined as 8400 nM; in assay [2], 170 nM; in the assay on OCI-Ly3 cell lines, 720 nM.

Regarding `C[C@@H]1CC(C(=O)c2cn(CCO)c3nc(-n4nccn4)c(Cl)cc23)C[C@@H](C)N1c1ncc(F)cc1I` (stereo partly drawn) [Example 4, [5-chloro-1-(2-hydroxyethyl)-6-(2H-1,2,3-triazol-2-yl)-1H-pyrrolo[2,3-b]pyridin-3-yl][(2R,6R)-1-(5-fluoro-3-iodopyridin-2-yl)-2,6-dimethylpiperidin-4-yl]methanone], the IC50 was determined as 7200 nM with SU-DHL-4 cell lines, 230 nM in assay [2] and 450 nM with OCI-Ly3 cell lines.
